Results on 21 compounds are retold here after patent publication US11547697B2, “Heterocyclic compounds and uses thereof” (MILLENNIUM PHARMACEUTICALS, INC., priority 2009, dated 2023).

One data set has as its system HCT116 cells. The data set can be described thus: Cell arrest assay, alone and in combination with MEK inhibitor. It counts as cell-based, human. The note with it: 3 μM compound 54 or 0.3 μM PD0325901, 20 hours. As to the method: Cells are then incubated in the presence of DMSO or inhibitor for 20 hours. The number of cells at each stage in the cell cycle is determined and expressed as a percent of the total, with an increase in the number of cells arrested at pre-GO/G1 indicating effective inhibition of cell cycle progression.

In data set [1] the test system is lupus disease model mice (R2KO, BXSB or MLR/lpr). To be noted: B6.Sle1z.Sle3z model (T. Wu et al.); cited from earlier work.
For data set [2] the following is noted: 5 μM, PBS pH 7.4, 37° C., 24 hours; cited from earlier work.
The test system of data set [3] is Human tumor cell lines (e.g., MCF7, U-87 MG, MDA-MB-468, PC-3). The data set can be described thus: Tumor cell line proliferation assay (Alamar Blue). The note with it: PC3 cells. It counts as cell-based. As to the method:
The ability of one or more subject compounds to inhibit tumor cell line proliferation is determined according to standard procedures known in the art. For instance, an in vitro cellular proliferation assay can be performed to measure the metabolic activity of live cells. The assay is performed in a 96 well microtiter plate using Alamar Blue reduction. Human tumor cell lines are obtained from ATCC (e.g., MCF7, U-87 MG, MDA-MB-468, PC-3), grown to confluency in T75 flasks, trypsinized with 0.25% trypsin, washed one time with Tumor Cell Media (DMEM+10% FBS), and plated in 90 ul at 5,000 cells/well in Tumor Cell Media. A compound disclosed herein is diluted in Tumor Cell Media and added in a 10 ul volume. Plates are incubated for 72 hours at 37 C and 5% CO2. A volume of 10 uL of Alamar Blue reagent is added to each well and plates are incubated for 3 hours at 37 C and 5% CO2. Alamar Blue fluoresce is read at 560Ex/590Em, and IC50 values are calculated using GraphPad Prism 5.
(In general: The colour change of resazurin is a common sign of viable cells or microbes.)

For the next data set, the target named is p110γ (Homo sapiens (Human), UniProt P48736). The data set can be described thus: PI 3-Kinase (human) HTRF assay, p110γ. Format: biochemical. To be noted: read-out: PI3K γ IC50.
In a further data set the target is p110α/p85α (Homo sapiens (Human), UniProt P42336). The data set can be described thus: PI 3-Kinase (human) HTRF assay, p110α/p85α. Format: biochemical. The note with it: read-out: PI3K α IC50.
The target in the next data set is recombinant mTOR (Homo sapiens (Human), UniProt P42345). As to the kind of experiment: mTOR inhibition assay (radiometric or LanthaScreen TR-FRET). Format: biochemical. To be noted: read-out: MTORC IC50.
For a further data set, the target named is p110δ/p85α (Homo sapiens (Human), UniProt O00329). The data set can be described thus: PI 3-Kinase (human) HTRF assay, p110δ/p85α. Format: biochemical. To be noted: read-out: PI3K δ IC50.
The next data set addresses p110β/p85α (Homo sapiens (Human), UniProt P42338). As to the kind of experiment: PI 3-Kinase (human) HTRF assay, p110β/p85α. It counts as biochemical. To be noted: read-out: PI3K β IC50.
For data set [4], the system named is tumor cells with a PI3Kα mutation (e.g., MDA-MB-361 and T47D). The data set can be described thus: Proliferation of tumor cells with PI3Kα mutation. It counts as cell-based. The note with it: Homo sapiens, T47D cells.
Data set [5] has as its system p190 transduced leukemic cells. The note with it: about 70 mg/kg twice daily, p190 model; cited from earlier work.
The conditions of data set [6]: 5 μM, human plasma, 37° C.; cited from earlier work.
In data set [7] the test system is PI3K/Akt/mTor signaling in blood cells. As to the kind of experiment: Kinase signaling in blood (phosflow). It counts as cell-based. The note with it: splenocytes or peripheral blood mononuclear cells, anti-CD3 stimulation. As to the method: PI3K/Akt/mTor signaling is measured in blood cells using the phosflow method (Methods Enzymol. 2007; 434:131-54). The advantage of this method is that it is by nature a single cell assay so that cellular heterogeneity can be detected rather than population averages. This allows concurrent distinction of signaling states in different populations defined by other markers. Phosflow is also highly quantitative. To test the effects of one or more compounds disclosed herein, unfractionated splenocytes, or peripheral blood mononuclear cells are stimulated with anti-CD3 to initiate T-cell receptor signaling. The cells are then fixed and stained for surface markers and intracellular phosphoproteins.
Similarly, aliquots of whole blood are incubated for 15 minutes with vehicle (e.g., 0.1% DMSO) or kinase inhibitors at various concentrations, before addition of stimuli to crosslink the T cell receptor (TCR) (anti-CD3 with secondary antibody) or the B cell receptor (BCR) using anti-kappa light chain antibody (Fab′2 fragments). After approximately 5 and 15 minutes, samples are fixed (e.g., with cold 4% paraformaldehyde) and used for phosflow. […] The level of phosphrylation of kinase substrates such as Akt and S6 are then measured by incubating the fixed cells with labeled antibodies specific to the phosphorylated isoforms of these proteins. The population of cells is then analyzed by flow cytometry.

Where [8] appears, read: read-out: PC3 proliferation (nM)*.
[9] abbreviates: read-out: PC3 proliferation IC50.
Where [10] appears, read: read-out: T47D proliferation IC50.

Like-named read-outs stand apart in the source and are kept apart here.

p110γ, sequence (P48736 whole entry): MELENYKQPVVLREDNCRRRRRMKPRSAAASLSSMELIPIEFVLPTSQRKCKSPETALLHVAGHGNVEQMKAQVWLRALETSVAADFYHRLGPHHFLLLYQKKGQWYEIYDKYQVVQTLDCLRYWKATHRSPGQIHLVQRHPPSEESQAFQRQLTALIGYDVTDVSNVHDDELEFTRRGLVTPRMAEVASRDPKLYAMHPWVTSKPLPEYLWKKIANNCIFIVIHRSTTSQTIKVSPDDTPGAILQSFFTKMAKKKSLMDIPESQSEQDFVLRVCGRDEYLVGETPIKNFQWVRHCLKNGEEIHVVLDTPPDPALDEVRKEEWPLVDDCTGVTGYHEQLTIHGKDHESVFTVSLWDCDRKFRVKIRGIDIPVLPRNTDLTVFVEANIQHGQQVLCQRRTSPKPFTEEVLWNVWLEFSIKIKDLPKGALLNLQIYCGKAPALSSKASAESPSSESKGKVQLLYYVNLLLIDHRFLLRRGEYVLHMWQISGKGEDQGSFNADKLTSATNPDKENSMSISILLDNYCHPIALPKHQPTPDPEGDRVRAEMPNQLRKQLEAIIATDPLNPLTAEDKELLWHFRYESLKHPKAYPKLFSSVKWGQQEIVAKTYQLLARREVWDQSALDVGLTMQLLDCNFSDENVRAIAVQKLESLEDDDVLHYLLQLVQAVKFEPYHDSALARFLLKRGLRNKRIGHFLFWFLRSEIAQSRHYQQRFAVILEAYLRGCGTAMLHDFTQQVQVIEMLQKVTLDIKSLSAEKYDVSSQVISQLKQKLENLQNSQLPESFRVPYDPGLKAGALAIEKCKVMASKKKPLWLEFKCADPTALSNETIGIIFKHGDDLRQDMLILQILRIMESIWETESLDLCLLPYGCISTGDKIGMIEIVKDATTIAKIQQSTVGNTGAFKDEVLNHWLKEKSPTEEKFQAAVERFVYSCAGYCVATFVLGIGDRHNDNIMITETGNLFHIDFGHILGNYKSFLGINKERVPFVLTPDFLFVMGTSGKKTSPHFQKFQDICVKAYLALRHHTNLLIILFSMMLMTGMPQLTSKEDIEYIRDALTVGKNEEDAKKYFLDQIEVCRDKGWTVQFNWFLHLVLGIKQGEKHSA
p110δ/p85α, sequence (O00329 whole entry): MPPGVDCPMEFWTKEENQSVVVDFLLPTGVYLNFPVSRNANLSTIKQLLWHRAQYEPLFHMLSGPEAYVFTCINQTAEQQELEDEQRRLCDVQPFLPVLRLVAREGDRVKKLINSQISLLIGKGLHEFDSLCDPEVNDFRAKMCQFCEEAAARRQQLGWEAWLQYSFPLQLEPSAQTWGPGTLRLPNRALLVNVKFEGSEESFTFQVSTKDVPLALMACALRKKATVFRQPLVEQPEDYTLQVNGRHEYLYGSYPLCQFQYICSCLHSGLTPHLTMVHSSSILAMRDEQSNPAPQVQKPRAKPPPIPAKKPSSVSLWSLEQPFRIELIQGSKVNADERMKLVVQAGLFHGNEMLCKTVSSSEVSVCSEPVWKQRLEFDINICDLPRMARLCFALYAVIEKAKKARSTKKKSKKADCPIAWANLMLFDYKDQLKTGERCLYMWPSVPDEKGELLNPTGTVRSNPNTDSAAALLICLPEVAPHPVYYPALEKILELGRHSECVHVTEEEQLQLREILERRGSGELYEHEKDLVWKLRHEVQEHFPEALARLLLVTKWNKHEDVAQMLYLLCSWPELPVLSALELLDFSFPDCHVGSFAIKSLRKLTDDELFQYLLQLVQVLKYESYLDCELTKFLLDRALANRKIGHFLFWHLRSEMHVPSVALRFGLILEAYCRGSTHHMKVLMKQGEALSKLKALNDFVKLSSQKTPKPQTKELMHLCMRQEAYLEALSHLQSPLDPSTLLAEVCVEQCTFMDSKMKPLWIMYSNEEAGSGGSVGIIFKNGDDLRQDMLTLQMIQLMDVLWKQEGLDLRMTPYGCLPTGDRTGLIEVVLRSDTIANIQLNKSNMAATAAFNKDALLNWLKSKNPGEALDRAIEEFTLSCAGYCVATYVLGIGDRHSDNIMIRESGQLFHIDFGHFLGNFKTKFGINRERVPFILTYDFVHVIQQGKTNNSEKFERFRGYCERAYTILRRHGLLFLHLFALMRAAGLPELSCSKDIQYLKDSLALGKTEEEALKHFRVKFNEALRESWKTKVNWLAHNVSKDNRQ
p110δ/p85α, sequence (P27986 whole entry partner): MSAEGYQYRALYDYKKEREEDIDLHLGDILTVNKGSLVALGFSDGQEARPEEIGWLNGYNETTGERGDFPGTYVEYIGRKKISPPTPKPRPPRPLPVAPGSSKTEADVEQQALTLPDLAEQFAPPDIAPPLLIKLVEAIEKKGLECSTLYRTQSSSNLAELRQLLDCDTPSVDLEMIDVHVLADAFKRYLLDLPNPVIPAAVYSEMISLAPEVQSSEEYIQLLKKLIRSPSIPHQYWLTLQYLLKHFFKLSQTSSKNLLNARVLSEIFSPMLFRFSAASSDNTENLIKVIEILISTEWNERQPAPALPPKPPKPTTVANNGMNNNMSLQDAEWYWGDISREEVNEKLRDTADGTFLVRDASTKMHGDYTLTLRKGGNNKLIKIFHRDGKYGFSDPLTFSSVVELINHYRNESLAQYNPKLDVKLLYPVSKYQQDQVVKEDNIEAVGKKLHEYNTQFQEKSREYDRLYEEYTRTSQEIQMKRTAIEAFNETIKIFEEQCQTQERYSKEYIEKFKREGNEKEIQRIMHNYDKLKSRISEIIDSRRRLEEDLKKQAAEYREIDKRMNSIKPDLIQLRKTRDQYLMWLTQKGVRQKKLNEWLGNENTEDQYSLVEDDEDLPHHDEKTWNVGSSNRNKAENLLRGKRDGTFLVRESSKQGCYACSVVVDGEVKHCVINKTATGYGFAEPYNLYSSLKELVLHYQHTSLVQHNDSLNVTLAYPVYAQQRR
p110α/p85α, sequence (P42336 whole entry): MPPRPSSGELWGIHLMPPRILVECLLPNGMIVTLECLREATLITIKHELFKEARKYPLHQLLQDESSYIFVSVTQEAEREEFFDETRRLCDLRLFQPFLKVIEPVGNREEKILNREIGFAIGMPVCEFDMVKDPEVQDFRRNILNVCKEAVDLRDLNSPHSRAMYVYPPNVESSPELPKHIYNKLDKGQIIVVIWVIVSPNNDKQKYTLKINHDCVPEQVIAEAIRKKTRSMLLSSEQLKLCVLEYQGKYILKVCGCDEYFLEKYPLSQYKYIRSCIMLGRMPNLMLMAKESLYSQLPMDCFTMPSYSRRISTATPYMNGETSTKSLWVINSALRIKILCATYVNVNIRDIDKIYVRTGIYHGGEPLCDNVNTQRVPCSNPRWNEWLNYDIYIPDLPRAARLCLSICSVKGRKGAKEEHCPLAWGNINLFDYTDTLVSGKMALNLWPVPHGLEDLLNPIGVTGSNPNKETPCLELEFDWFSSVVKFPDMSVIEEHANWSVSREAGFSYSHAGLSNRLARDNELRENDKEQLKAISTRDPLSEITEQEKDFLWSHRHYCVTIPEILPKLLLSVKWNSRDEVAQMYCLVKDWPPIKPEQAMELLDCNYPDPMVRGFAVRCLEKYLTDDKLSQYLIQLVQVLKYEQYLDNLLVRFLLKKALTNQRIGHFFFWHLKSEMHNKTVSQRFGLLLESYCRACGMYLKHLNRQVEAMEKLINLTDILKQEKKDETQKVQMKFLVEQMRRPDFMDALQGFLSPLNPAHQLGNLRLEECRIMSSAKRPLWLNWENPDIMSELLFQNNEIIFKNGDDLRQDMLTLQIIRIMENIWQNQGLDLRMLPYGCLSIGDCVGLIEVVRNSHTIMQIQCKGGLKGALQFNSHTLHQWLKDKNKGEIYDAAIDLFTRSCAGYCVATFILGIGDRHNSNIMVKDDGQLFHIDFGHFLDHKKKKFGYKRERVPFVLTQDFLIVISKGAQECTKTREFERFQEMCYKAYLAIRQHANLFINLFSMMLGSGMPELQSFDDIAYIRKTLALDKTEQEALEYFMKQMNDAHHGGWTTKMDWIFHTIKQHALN
p110α/p85α, sequence (P27986 whole entry partner): as the sequence (P27986 whole entry partner) above
p110β/p85α, sequence (P42338 whole entry): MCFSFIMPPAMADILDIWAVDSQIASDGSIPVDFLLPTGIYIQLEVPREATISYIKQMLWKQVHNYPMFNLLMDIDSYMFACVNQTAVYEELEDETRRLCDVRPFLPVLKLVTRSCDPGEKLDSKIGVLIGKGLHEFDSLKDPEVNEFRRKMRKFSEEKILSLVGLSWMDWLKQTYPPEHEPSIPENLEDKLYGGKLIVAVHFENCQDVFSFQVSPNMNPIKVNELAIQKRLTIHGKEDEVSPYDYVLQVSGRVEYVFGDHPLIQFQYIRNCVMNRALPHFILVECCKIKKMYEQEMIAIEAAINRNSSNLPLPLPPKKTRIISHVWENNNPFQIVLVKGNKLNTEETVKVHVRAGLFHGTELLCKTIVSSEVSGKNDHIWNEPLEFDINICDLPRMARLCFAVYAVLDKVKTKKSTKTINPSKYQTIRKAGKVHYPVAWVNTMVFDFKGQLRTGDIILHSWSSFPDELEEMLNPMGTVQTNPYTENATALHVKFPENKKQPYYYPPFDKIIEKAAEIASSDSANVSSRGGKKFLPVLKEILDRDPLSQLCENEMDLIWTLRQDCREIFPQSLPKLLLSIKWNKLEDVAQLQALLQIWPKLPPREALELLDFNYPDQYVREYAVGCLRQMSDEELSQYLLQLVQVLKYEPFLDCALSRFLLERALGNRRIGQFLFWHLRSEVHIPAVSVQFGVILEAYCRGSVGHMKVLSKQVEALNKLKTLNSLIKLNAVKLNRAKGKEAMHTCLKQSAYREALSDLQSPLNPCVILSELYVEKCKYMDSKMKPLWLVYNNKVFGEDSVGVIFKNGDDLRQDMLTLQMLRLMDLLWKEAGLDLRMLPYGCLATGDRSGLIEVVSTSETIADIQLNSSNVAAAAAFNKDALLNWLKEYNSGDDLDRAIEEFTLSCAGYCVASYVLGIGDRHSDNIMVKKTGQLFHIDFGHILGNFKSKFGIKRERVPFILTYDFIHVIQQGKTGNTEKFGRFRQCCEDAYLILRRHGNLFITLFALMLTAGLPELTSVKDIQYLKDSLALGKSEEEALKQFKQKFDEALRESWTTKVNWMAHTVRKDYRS
p110β/p85α, sequence (P27986 whole entry partner): as the sequence (P27986 whole entry partner) above
Method for p110δ/p85α: An exemplary system is PI 3-Kinase (human) HTRF™ Assay from Upstate. […] Briefly, the assay is a time resolved FRET assay that indirectly measures PIP3 product formed by the activity of a PI3-K. The kinase reaction is performed in a microtitre plate (e.g., a 384 well microtitre plate). The total reaction volume is approximately 20 ul per well. In the first step, each well receives 2 ul of test compound in 20% dimethylsulphoxide resulting in a 2% DMSO final concentration. Next, approximately 14.5 ul of a kinase/PIP2 mixture (diluted in 1× reaction buffer) is added per well for a final concentration of 0.25-0.3 ug/ml kinase and 10 μM PIP2. The plate is sealed and incubated for 15 minutes at room temperature. To start the reaction, 3.5 ul of ATP (diluted in 1× reaction buffer) is added per well for a final concentration of 10 μM ATP. The plate is sealed and incubated for 1 hour at room temperature. The reaction is stopped by adding 5 ul of Stop Solution per well and then 5 ul of Detection Mix is added per well. The plate is sealed, incubated for 1 hour at room temperature, and then read on an appropriate plate reader. Data is analyzed and IC50s are generated using GraphPad Prism 5. […] For PI3K α, β, δ, and γ, the nM concentration of inhibitor to reach IC50 is provided.
Method for recombinant mTOR: The compounds described herein can be tested against recombinant mTOR (Invitrogen) in an assay containing 50 mM HEPES, pH 7.5, 1 mM EGTA, 10 mM MgCl2, 2.5 mM, 0.01% Tween, 10 pM ATP (2.5 μCi of μ-32P-ATP), and 3 μg/mL BSA. R^at recombinant PHAS-1/4EBP1 (Calbiochem; 2 mg/mL) is used as a substrate. Reactions are terminated by spotting onto nitrocellulose, which is washed with 1M NaCl/1% phosphoric acid (approximately 6 times, 5-10 minutes each). Sheets are dried and the transferred radioactivity quantitated by phosphorimaging.
For instance, one can use Invitrogen's LanthaScreen™ Kinase assay to test the inhibitors of mTOR disclosed herein. This assay is a time resolved FRET platform that measures the phosphorylation of GFP labeled 4EBP1 by mTOR kinase. The kinase reaction is performed in a white 384 well microtitre plate. The total reaction volume is 20 ul per well and the reaction buffer composition is 50 mM HEPES pH7.5, 0.01% Polysorbate 20, 1 mM EGTA, 10 mM MnCl2, and 2 mM DTT. In the first step, each well receives 2 ul of test compound in 20% dimethylsulphoxide resulting in a 2% DMSO final concentration. Next, 8 ul of mTOR diluted in reaction buffer is added per well for a 60 ng/ml final concentration. To start the reaction, 10 ul of an ATP/GFP-4EBP1 mixture (diluted in reaction buffer) is added per well for a final concentration of 10 μM ATP and 0.5 μM GFP-4EBP1. The plate is sealed and incubated for 1 hour at room temperature. […] The plate is sealed, incubated for 1 hour at room temperature, and then read on a plate reader set up for LanthaScreen™ TR-FRET. Data is analyzed and IC50s are generated using GraphPad Prism 5.

For `O=C(NOC[C@H](O)CO)c1ccc(F)c(F)c1Nc1ccc(I)cc1F` [PD0325901, reference compound], the “Cell cycle arrest, single inhibitor versus DMSO control” value in the data set with HCT116 cells is on record as “some increase in cell cycle arrest by comparison to DMSO control”.
With `CO[C@H]1C[C@@H]2CC[C@@H](C)[C@@](O)(O2)C(=O)C(=O)N2CCCC[C@H]2C(=O)O[C@H]([C@H](C)C[C@@H]2CC[C@@H](OCCO)[C@H](OC)C2)CC(=O)[C@H](C)/C=C(\C)[C@@H](O)[C@@H](OC)C(=O)[C@H](C)C[C@H](C)/C=C/C=C/C=C/1C` [RAD001], the “Effect on lupus symptoms” value in data set [1] is listed as “ameliorate lupus symptoms”.
Take `O=C(O)CCCc1ccc(N(CCCl)CCCl)cc1` [chlorambucil, 4-[bis(2-chloroethyl)amino]benzenebutanoic acid]: in data set [2], the “Chemical stability of reference compound” value is given as “largely hydrolyzed over the course of 24 hours”.
As for `CC(=O)Nc1nc2ccc(-c3ccc4nccc(-c5ccncc5)c4c3)cc2s1` [compound 2], the IC50 is less than 10000 nM in [3] (setting [8]), less than 1000 nM on p110γ and less than 1000 nM at p110α/p85α.
In the case of `Nc1nc2ccc(-c3ccc4nccc(-c5ccncc5)c4c3)cc2o1` [compound 4], the IC50 in [3] (setting [8]) is less than 100 nM; on p110γ, less than 100 nM; at p110α/p85α, less than 100 nM; at recombinant mTOR, less than 1 µM; on p110δ/p85α it was less than 100 nM; on p110β/p85α, less than 100 nM.
Consider `Nc1nc2cc(-c3ccc4ncc(-c5ccncc5)n4c3)ccc2o1` [compound 6], for which the IC50 in data set [3] (setting [8]) was less than 10000 nM; on p110γ, less than 100 nM; at p110α/p85α, less than 100 nM; on recombinant mTOR, less than 10 µM; at p110δ/p85α it was less than 1000 nM; at p110β/p85α, less than 10000 nM. In addition, the IC50 in [4] (read-out: T47D proliferation) is less than 1000 nM.
On to `Cn1c(=O)n(-c2ccc(C(C)(C)C#N)cc2)c2c3cc(-c4ccc5oc(N)nc5c4)ccc3ncc21` [compound 7], for which the IC50 in [3] (setting [8]) was less than 100 nM; at p110γ, less than 100 nM; at p110α/p85α, less than 100 nM; on recombinant mTOR, less than 0.1 µM; at p110δ/p85α, less than 100 nM; on p110β/p85α it was less than 100 nM.
With `Nc1nc2cc(-c3ccc4ncc(-c5ccncc5)n4n3)ccc2o1` [compound 10], the IC50 in data set [3] (setting [8]) was less than 1000 nM; on p110γ, less than 100 nM; on p110α/p85α, less than 100 nM; on recombinant mTOR, less than 1 µM; on p110β/p85α, less than 1000 nM; in [4] (read-out: T47D proliferation), less than 1000 nM.
Regarding `CS(=O)(=O)N1CCN(Cc2cc3nc(-c4ccc5oc(N)nc5c4)nc(N4CCOCC4)c3s2)CC1` [compound 129], the IC50 is less than 1000 nM in [3] (setting [8]); less than 100 nM on p110γ; less than 100 nM at p110α/p85α; less than 1 µM at recombinant mTOR; less than 1000 nM at p110δ/p85α; less than 1000 nM on p110β/p85α.
Regarding `CN1CCC(N(C)C(=O)c2cnc3ccc(-c4ccc5oc(N)nc5c4)cn23)CC1` [compound 165], the IC50 was less than 1000 nM in data set [3] (setting [8]), less than 1000 nM on p110α/p85α, less than 10000 nM on p110δ/p85α and less than 10000 nM at p110β/p85α.
For `CC(=O)Nc1nc2ccc(-c3ccc4oc(N)nc4c3)cc2s1` [compound 231], the IC50 in [3] (setting [9]) is less than 10000 nM; on p110γ (in vitro), less than 100 nM; on p110α/p85α (in vitro), less than 100 nM; at recombinant mTOR (in vitro), less than 10 µM; at p110δ/p85α (in vitro), less than 100 nM; on p110β/p85α (in vitro), less than 1000 nM. Further, the IC50 in data set [4] (setting [10]) was less than 1000 nM.
`CC(=O)Nc1cn2cc(-c3ccc4oc(N)nc4c3)ccc2n1` [compound 234]: the IC50 was less than 100 nM in data set [3] (setting [9]); less than 100 nM at p110γ (in vitro); less than 100 nM on p110α/p85α (in vitro); less than 1 µM on recombinant mTOR (in vitro); less than 100 nM at p110δ/p85α (in vitro); less than 1000 nM at p110β/p85α (in vitro). The IC50 in [4] (setting [10]) was less than 1000 nM.
On to `CN1CCN(C2CN(c3cnc4ccc(-c5ccc6oc(N)nc6c5)cc4n3)C2)CC1` [compound 274], for which the IC50 was less than 10000 nM at p110γ (in vitro); less than 100 nM at p110α/p85α (in vitro); less than 10 µM at recombinant mTOR (in vitro); less than 10000 nM at p110δ/p85α (in vitro); less than 10000 nM at p110β/p85α (in vitro); less than 1000 nM in data set [4] (setting [10]).
In the case of `Nc1nc2cc(-c3ccc4ncc(N5CC(C(=O)N6CCN(C7CC7)CC6)C5)nc4c3)ccc2o1` [compound 276], the IC50 was less than 1000 nM at p110γ (in vitro); less than 100 nM on p110α/p85α (in vitro); less than 10 µM at recombinant mTOR (in vitro); less than 1000 nM on p110δ/p85α (in vitro); less than 10000 nM on p110β/p85α (in vitro); less than 1000 nM in data set [4] (setting [10]).
As for `CN1CCN(c2cnc3ccc(-c4ccc5oc(N)nc5c4)cc3n2)CC1=O` [compound 277], the IC50 was less than 1000 nM on p110γ (in vitro); less than 100 nM at p110α/p85α (in vitro); less than 10 µM at recombinant mTOR (in vitro); less than 10000 nM on p110δ/p85α (in vitro); less than 1000 nM at p110β/p85α (in vitro); less than 1000 nM in data set [4] (setting [10]).
As for `Nc1nc2cc(-c3ccc4ncc(N5CCN(C(=O)[C@@H](N)CO)CC5)nc4c3)ccc2o1` [compound 298], the IC50 was less than 10000 nM on p110γ (in vitro); less than 100 nM at p110α/p85α (in vitro); less than 10 µM at recombinant mTOR (in vitro); less than 10000 nM on p110δ/p85α (in vitro); less than 1000 nM on p110β/p85α (in vitro); less than 10000 nM in data set [4] (setting [10]).
For the compound `Cc1nccn1C1CN(c2cnc3ccc(-c4ccc5oc(N)nc5c4)cc3n2)C1` [compound 354], the IC50 at p110γ (in vitro) is less than 10000 nM; on p110α/p85α (in vitro), less than 100 nM; on recombinant mTOR (in vitro), less than 10 µM; at p110δ/p85α (in vitro), less than 10000 nM; at p110β/p85α (in vitro) it was less than 10000 nM; in data set [4] (setting [10]) it was less than 1000 nM.
As to `Cc1ccc(NC(=O)c2ccc(CN3CCN(C)CC3)cc2)cc1Nc1nccc(-c2cccnc2)n1` [imatinib], the Effect on leukemogenesis entry in [5] was “delay but not cure leukemogenesis”.
With `CC(C)[N+](C)(CCOC(=O)C1c2ccccc2Oc2ccccc21)C(C)C` [propantheline], in data set [6], the “Plasma stability of control compounds” value is “intermediate plasma stability”.
With `CCCOc1cc(N)ccc1C(=O)OCCN(CC)CC` [propoxycaine], the “Plasma stability of control compounds” value in [6] was “low plasma stability”.
Turning to `CO[C@H]1C[C@@H]2CC[C@@H](C)[C@@](O)(O2)C(=O)C(=O)N2CCCC[C@H]2C(=O)O[C@H]([C@H](C)C[C@@H]2CC[C@@H](O)[C@H](OC)C2)CC(=O)[C@H](C)/C=C(\C)[C@@H](O)[C@@H](OC)C(=O)[C@H](C)C[C@H](C)/C=C/C=C/C=C/1C` [rapamycin], in data set [7], the “anti-CD3 mediated Akt -S473 phosphorylation” value is “enhances Akt phosphorylation” and the “anti-CD3 mediated S6 phosphorylation” value is listed as “inhibits S6 phosphorylation”.
